“And” between values parts separate entries of the source, which are not always exact repeats. Identical values can stand only once. Toxic doses and inconclusive results are not listed.
Test system: B6C3F1 mice, ip Sarcoma M5076, median survival T/C
Assay: NCI In Vivo Anticancer Drug Screen. Data for tumor model Sarcoma M5076 (intraperitoneal) in B6C3F1 mice
Conditions: endpoint: median survival time, schedule: Q04DX004 (ip), higher = longer survival
Procedure, shortened: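 Transplantable tumour in mice; compound-treated vs vehicle-treated groups. Read-out: survival. Value = treated/control ratio.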

[1] = dose: 12.5 mg/kg/injection, vehicle: saline with Tween-80
[2] = dose: 25.0 mg/kg/injection, vehicle: saline with Tween-80
[3] = dose: 50.0 mg/kg/injection, vehicle: Klucel (hydroxypropylcellulose) (HPC)
[4] = dose: 100.0 mg/kg/injection, vehicle: Klucel (hydroxypropylcellulose) (HPC)
[5] = dose: 200.0 mg/kg/injection, vehicle: Klucel (hydroxypropylcellulose) (HPC)
[6] = dose: 400.0 mg/kg/injection, vehicle: Klucel (hydroxypropylcellulose) (HPC)
[7] = dose: 37.5 mg/kg/injection, vehicle: saline with Tween-80
[8] = dose: 75.0 mg/kg/injection, vehicle: saline with Tween-80
[9] = dose: 150.0 mg/kg/injection, vehicle: saline with Tween-80
[10] = dose: 300.0 mg/kg/injection, vehicle: saline with Tween-80
[11] = dose: 50.0 mg/kg/injection, vehicle: saline with Tween-80
[12] = dose: 100.0 mg/kg/injection, vehicle: saline with Tween-80
[13] = dose: 25.0 mg/kg/injection, vehicle: Klucel (hydroxypropylcellulose) (HPC)

O=C1C2CC=CCC2C(=O)N1SC(Cl)(Cl)Cl (stereo unspecified)
T/C (dose: 3.13 mg/kg/injection, vehicle: saline with Tween-80): 110 % of control
T/C (dose: 6.25 mg/kg/injection, vehicle: saline with Tween-80): 120 % of control
T/C [1]: 91 % of control
T/C [2]: 100 % of control

O=C1NC(=O)C23CCCCc4cccc(c42)C(=O)C13 (stereo unspecified)
T/C (dose: 25.0 mg/kg/injection, vehicle: water): 103 % of control
T/C (dose: 50.0 mg/kg/injection, vehicle: water): 103 % of control
T/C (dose: 100.0 mg/kg/injection, vehicle: water): 107 % of control
T/C (dose: 200.0 mg/kg/injection, vehicle: water): 103 % of control
T/C (dose: 400.0 mg/kg/injection, vehicle: water): 106 % of control

COc1cc(C#N)c(NC(=S)N2CCN(C(=O)c3ccco3)CC2)cc1OC
T/C [3]: 98 % of control
T/C [4]: 111 % of control
T/C [5]: 103 % of control
T/C [6]: 90 % of control

O=C1c2c(O)cccc2-c2nn(CCNCCO)c3ccc(NCCNCCO)c1c23
T/C (dose: 2.75 mg/kg/injection, vehicle: water): 169 % of control
T/C (dose: 5.5 mg/kg/injection, vehicle: water): 233 % of control and 263 % of control
T/C (dose: 11.0 mg/kg/injection, vehicle: water): 243 % of control
T/C (dose: 22.0 mg/kg/injection, vehicle: water): 109 % of control

O=S(=O)(O)C1=CC(=N\Cl)/C=CC/1=N/Cl
T/C [7]: 104 % of control
T/C [8]: 104 % of control
T/C [9]: 106 % of control
T/C [10]: 108 % of control

COc1cc(/C=C/[N+](=O)[O-])cc(Br)c1OC
T/C [1]: 95 % of control
T/C [2]: 90 % of control
T/C [11]: 94 % of control
T/C [12]: 107 % of control

Cn1[nH]c2[nH]c(=S)sc(=S)c2c1=O
T/C [13]: 100 % of control
T/C [3]: 94 % of control
T/C [4]: 95 % of control
T/C [5]: 94 % of control
T/C [6]: 95 % of control

COc1cc2c(cc1OC)-c1c3c(cc4c1[C@@H](C2)N(C)CC4)OCO3
T/C (dose: 12.5 mg/kg/injection, vehicle: distilled water + Tween-80): 101 % of control
T/C (dose: 25.0 mg/kg/injection, vehicle: distilled water + Tween-80): 100 % of control
T/C (dose: 50.0 mg/kg/injection, vehicle: distilled water + Tween-80): 100 % of control
T/C (dose: 100.0 mg/kg/injection, vehicle: distilled water + Tween-80): 95 % of control

C[C@]12C=CC(=O)C=C1CC[C@@H]1[C@@H]2C(=O)C[C@@]2(C)[C@H]1CC[C@]2(O)C(=O)CO
T/C [3]: 105 % of control and 123 % of control
T/C [4]: 118 % of control
T/C [5]: 116 % of control
T/C [6]: 94 % of control

CCCCCCC1C(C#N)C(=O)NC(=O)C1C#N (stereo unspecified)
T/C (dose: 40.63 mg/kg/injection, vehicle: Klucel (hydroxypropylcellulose) (HPC)): 95 % of control
T/C (dose: 81.25 mg/kg/injection, vehicle: Klucel (hydroxypropylcellulose) (HPC)): 94 % of control
T/C (dose: 162.5 mg/kg/injection, vehicle: Klucel (hydroxypropylcellulose) (HPC)): 101 % of control
T/C (dose: 325.0 mg/kg/injection, vehicle: Klucel (hydroxypropylcellulose) (HPC)): 92 % of control
T/C (dose: 650.0 mg/kg/injection, vehicle: Klucel (hydroxypropylcellulose) (HPC)): 87 % of control

CCOC(=O)c1c(C(=O)OC)nc2n1-c1ccccc1OC2
T/C (dose: 31.25 mg/kg/injection, vehicle: saline with Tween-80): 100 % of control
T/C (dose: 62.0 mg/kg/injection, vehicle: saline with Tween-80): 103 % of control
T/C (dose: 125.0 mg/kg/injection, vehicle: saline with Tween-80): 100 % of control
T/C (dose: 250.0 mg/kg/injection, vehicle: saline with Tween-80): 88 % of control
T/C (dose: 500.0 mg/kg/injection, vehicle: saline with Tween-80): 96 % of control

O=c1c(-c2nn[nH]n2)cnc2sc3cc(Cl)ccc3n12
T/C [7]: 98 % of control
T/C [8]: 95 % of control
T/C [9]: 90 % of control

COC(=O)c1ccc(N=NN(C)COC(C)=O)cc1
T/C (dose: 30.0 mg/kg/injection, vehicle: Klucel (hydroxypropylcellulose) (HPC)): 123 % of control
T/C (dose: 60.0 mg/kg/injection, vehicle: Klucel (hydroxypropylcellulose) (HPC)): 123 % of control
T/C (dose: 103.7 mg/kg/injection, vehicle: Klucel (hydroxypropylcellulose) (HPC)): 175 % of control
T/C (dose: 172.8 mg/kg/injection, vehicle: Klucel (hydroxypropylcellulose) (HPC)): 188 % of control
T/C (dose: 288.0 mg/kg/injection, vehicle: Klucel (hydroxypropylcellulose) (HPC)): 195 % of control
T/C (dose: 480.0 mg/kg/injection, vehicle: Klucel (hydroxypropylcellulose) (HPC)): 167 % of control

O=c1cc(-c2ccccc2)[nH]c2c1CCCC2
T/C [8]: 91 % of control
T/C [9]: 99 % of control
T/C [10]: 106 % of control
T/C (dose: 600.0 mg/kg/injection, vehicle: saline with Tween-80): 98 % of control

O=c1[nH]cnc2c1cnn2CN1CCOCC1
T/C [13]: 99 % of control
T/C [3]: 101 % of control
T/C [4]: 98 % of control
T/C [5]: 112 % of control

NC(C(=O)O)/C1=C/CCCCCC1 (stereo unspecified)
T/C [13]: 100 % of control
T/C [3]: 98 % of control
T/C [4]: 100 % of control
T/C [5]: 111 % of control
T/C [6]: 103 % of control

CC1OC2CC(O)C1(O)C1=C2C(O)=C(C(N)=O)C(=N)C1=O (stereo unspecified)
T/C (dose: 1.25 mg/kg/injection, vehicle: saline): 108 % of control
T/C (dose: 2.5 mg/kg/injection, vehicle: saline): 101 % of control
T/C (dose: 5.0 mg/kg/injection, vehicle: saline): 100 % of control

Cn1c2ccccc2c2ccc3c(c21)C(=O)C=CC3=O
T/C [13]: 93 % of control
T/C [3]: 98 % of control

Cc1cc(=O)n(Cc2ccco2)c(=S)[nH]1
T/C [11]: 105 % of control
T/C [12]: 105 % of control
T/C (dose: 200.0 mg/kg/injection, vehicle: saline with Tween-80): 100 % of control
T/C (dose: 400.0 mg/kg/injection, vehicle: saline with Tween-80): 89 % of control
T/C (dose: 800.0 mg/kg/injection, vehicle: saline with Tween-80): 106 % of control

Cn1nc2c(c(Cl)c1=O)Nc1ccccc1O2
T/C [7]: 104 % of control
T/C [8]: 97 % of control
T/C [9]: 96 % of control

COc1ccc(C2NC(=S)NC(=O)C2C#N)cc1OC (stereo unspecified)
T/C [3]: 95 % of control
T/C [4]: 100 % of control
T/C [5]: 106 % of control
T/C [6]: 105 % of control

COc1cc(C2=NCCc3cc4c(cc32)OCO4)cc(OC)c1OC
T/C (dose: 12.5 mg/kg/injection, vehicle: saline): 106 % of control
T/C (dose: 25.0 mg/kg/injection, vehicle: saline): 106 % of control
T/C (dose: 50.0 mg/kg/injection, vehicle: saline): 106 % of control
T/C (dose: 100.0 mg/kg/injection, vehicle: saline): 110 % of control

Reference: PubChem BioAssay AID292 (DTP/NCI, 2004)
